Earlier results in patent US20100022590A1, “Novel compounds” (BIOVITRUM AB (publ.), priority 2008, published 2010).

Columns and labels:
[1] = tested on: intraocular pressure (IOP); details: orally administered, patients with ocular hypertension
[2] = tested on: intraocular pressure (IOP); details: oral administration, healthy volunteers

CC1(C)[C@@H](OC(=O)CCC(=O)O)CC[C@]2(C)[C@H]3C(=O)C=C4[C@@H]5C[C@@](C)(C(=O)O)CC[C@]5(C)CC[C@@]4(C)[C@]3(C)CC[C@@H]12 [carbenoxolone]
IOP reduction [1]: 10% | reduction of intraocular pressure (IOP) [2]: 20%
